Assays:
in vitro [1] = settings: for Papp at 5 h, 10 µM: PAMPA, pH 7.4, Papp ± SD (PAMPA)
From the text: The permeability of OT and its prodrugs was estimated by the PAMPA test (Corning, Gentest PAMPA Plate System). The PAMPA method is a common method for the permeability evaluation of early drug candidates. Although this system lacks transporters, paracellular pathway enzymes, and other cell-associated processes, it measures passive diffusion, the primary mechanism by which drugs traverse biological barriers. Consequently, due to its low cost, high throughput, and relative handling ease, it serves as screening tool for predicting drugs absorption potential. The PAMPA reflects the passive transport through biological membranes, and its results are reported to correlate with those obtained from the Caco-2 cell model.
A Gentest Pre-coated PAMPA Plate System was purchased from Corning® (Tewksbury, MA, USA). The assay was performed according to the provider instructions, following Caco-2 convention, where the top well is a donor well. The 10 µM solutions of OT, prodrugs, and permeability markers were prepared in PBS buffer, pH 7.4, from 1 mM stock solutions in dimethyl sulfoxide (DMSO). A total of 300 µL per well of tested compounds was added to the donor, filter plate, which, after distribution of all samples, was coupled with acceptor plate filed with 200 µL of phosphate-buffered saline (PBS) per well. All compounds were measured in triplicate. After 5 h of incubation at 25 °C, 200 µL samples were collected from acceptor and donor wells and analyzed using UHPLC-MS to determine concentrations of compounds.

in vitro [2] = settings: human, Caco-2
Experimental: (§1) The transport of OT and its derivatives (Oct-OT, Hoc-OT, Dec-OT, Dod-OT) selected for further in vitro studies was evaluated at a target concentration of approximately 100 µg/mL. Intestinal transport was initiated by adding the tested compounds to the apical compartment for absorptive transport determination. The solutions from the acceptor compartments were sampled at 20-minute intervals to analyze the concentration of transported compounds.
(§2) The Caco-2 cell line (ATCC HTB-37), derived from human colon adenocarcinoma, was obtained from the American Type Culture Collection (ATCC, Manassas, VA, USA). Caco-2 cells were cultured at 37 °C under a 5% CO2 atmosphere using Dulbecco’s Modified Eagle’s Medium (DMEM), supplemented with 20% (v/v) fetal bovine serum, non-essential amino acids 100×, and gentamycin (50 mg/mL). For experiments, the Caco-2 cells were plated at a density of 4 × 10^5 cells per cm^2 on polyethylene terephthalate (PET) capillary pore membranes with a pore size of 0.4 μm and a growth surface area of 1.13 cm^2 (Greiner PET hanging). The culture medium was replaced every 2 days. All experiments were performed on differentiated Caco-2 cell monolayers 21 days post-seeding. To check the integrity of the Caco-2 monolayer, transepithelial electrical resistance (TEER) was measured by employing the Millicell Electrical Resistance System (Millipore, Bedford, MA, USA). Moreover, fluorescein-5(6)-sulfonic acid was used as a transport marker, added to the apical side of the Caco-2 cultures at 200 μg/mL concentration. Fluoresceinated sulfonic acid, with a molecular weight of 478 Da, is a hydrophilic, charged molecule at physiological pH and is considered cell impermeable. Unless specified otherwise, all chemicals were purchased from Merck KGaA (Darmstadt, Germany).
(§3) The analyzed compounds at non-cytotoxic concentration of approximately 100 μg/mL were prepared in Hank’s balanced salt solution (HBSS), which was adapted as a transport medium. […] Before the experiments, the Caco-2 monolayers were washed twice with HBSS and pre-incubated at 37 °C for 30 min. Transport was initiated by adding HBSS to the acceptor (basolateral) side and the analyzed compound to the donor (apical) side, which mimicked absorptive intestinal transport. The Caco-2 cell cultures were placed in the incubator (37 °C) and continuously agitated using a plate shaker (120 rpm). At 20 min intervals, a sample was taken from the acceptor compartment, and HPLC analyzed the concentration of the transported compound. Each sample volume was replaced with fresh HBSS warmed to 37 °C. To quantify the transport of compound across the Caco-2 cell monolayer, the apparent permeability coefficient (Papp) was determined according to the protocol previously described by Tavelin et al.. […]

Caco-2 cell monolayer [3] = experiment: Caco-2 monolayer integrity by TEER before and after treatment; assay type: cell-based, human; settings: 100 µg/mL, 2 h treatment
Experimental: This assessment was performed using a dose (100 µg/mL) and treatment time (2 h) similar to those applied in the intestinal transport analysis.
Caco-2 cells were cultured at 37 °C under a 5% CO2 atmosphere using Dulbecco’s Modified Eagle’s Medium (DMEM), supplemented with 20% (v/v) fetal bovine serum, non-essential amino acids 100×, and gentamycin (50 mg/mL). […] The culture medium was replaced every 2 days.

Caco-2 cell monolayer [4] = experiment: in vitro
Experimental: as §1, §2, §3

[5] = cited from earlier work

| Compound | Papp at 5 h, 10 µM (in vitro [1]) | Papp A→B (in vitro [2]) | Caco-2 monolayer integrity (TEER before and after treatment) (Caco-2 cell monolayer [3]) | PAMPA permeability (in words) (in vitro [1]) | Caco-2 permeability compared to OT (in words) (Caco-2 cell monolayer [4]) | Mass Retention (PAMPA) (in vitro [1]; 5 h, 10 µM, pH 7.4) | Time to peak levels after intranasal administration [5] |
| --- | --- | --- | --- | --- | --- | --- | --- |
| CCCOC(=O)N[C@H]1CSSC[C@@H](C(=O)N2CCC[C@H]2C(=O)N[C@@H](CC(C)C)C(=O)NCC(N)=O)NC(=O)[C@H](CC(N)=O)NC(=O)[C@H](CCC(N)=O)NC(=O)[C@H]([C@@H](C)CC)NC(=O)[C@H](Cc2ccc(O)cc2)NC1=O [Prop-OT, Prop-Cys(&)-Tyr-Ile-Gln-Asn-Cys(&)-Pro-Leu-Gly-NH2] | 2.97 ± 0.64 ×10⁻⁶ cm/s | – | – | – | – | – | – |
| CCCCCCCCOC(=O)N[C@H]1CSSC[C@@H](C(=O)N2CCC[C@H]2C(=O)N[C@@H](CC(C)C)C(=O)NCC(N)=O)NC(=O)[C@H](CC(N)=O)NC(=O)[C@H](CCC(N)=O)NC(=O)[C@H]([C@@H](C)CC)NC(=O)[C@H](Cc2ccc(O)cc2)NC1=O [Oct-OT, Oct-Cys(&)-Tyr-Ile-Gln-Asn-Cys(&)-Pro-Leu-Gly-NH2] | 5.93 ± 0.86 ×10⁻⁶ cm/s | 14 ± 2.27 ×10⁻⁶ cm/s | stable and high monolayer integrity | significantly better permeability | – | – | – |
| CCCCCCCCCCOC(=O)N[C@H]1CSSC[C@@H](C(=O)N2CCC[C@H]2C(=O)N[C@@H](CC(C)C)C(=O)NCC(N)=O)NC(=O)[C@H](CC(N)=O)NC(=O)[C@H](CCC(N)=O)NC(=O)[C@H]([C@@H](C)CC)NC(=O)[C@H](Cc2ccc(O)cc2)NC1=O [Dec-OT, Dec-Cys(&)-Tyr-Ile-Gln-Asn-Cys(&)-Pro-Leu-Gly-NH2] | 9.28 ± 6.11 ×10⁻⁶ cm/s | – | stable and high monolayer integrity | significantly better permeability | – | – | – |
| CCCCCCOC(=O)N[C@H]1CSSC[C@@H](C(=O)N2CCC[C@H]2C(=O)N[C@@H](CC(C)C)C(=O)NCC(N)=O)NC(=O)[C@H](CC(N)=O)NC(=O)[C@H](CCC(N)=O)NC(=O)[C@H]([C@@H](C)CC)NC(=O)[C@H](Cc2ccc(O)cc2)NC1=O [Hoc-OT, Hoc-Cys(&)-Tyr-Ile-Gln-Asn-Cys(&)-Pro-Leu-Gly-NH2] | 4.67 ± 0.66 ×10⁻⁶ cm/s | 1.99 ± 0.33 ×10⁻⁶ cm/s | stable and high monolayer integrity | significantly better permeability | lower permeability than OT | – | – |
| CCCCCCCCCCCCOC(=O)N[C@H]1CSSC[C@@H](C(=O)N2CCC[C@H]2C(=O)N[C@@H](CC(C)C)C(=O)NCC(N)=O)NC(=O)[C@H](CC(N)=O)NC(=O)[C@H](CCC(N)=O)NC(=O)[C@H]([C@@H](C)CC)NC(=O)[C@H](Cc2ccc(O)cc2)NC1=O [Dod-OT, Dod-Cys(&)-Tyr-Ile-Gln-Asn-Cys(&)-Pro-Leu-Gly-NH2] | 1.08 ± 0.95 ×10⁻⁶ cm/s | – | stable and high monolayer integrity | poor permeability | – | – | – |
| CCCCOC(=O)N[C@H]1CSSC[C@@H](C(=O)N2CCC[C@H]2C(=O)N[C@@H](CC(C)C)C(=O)NCC(N)=O)NC(=O)[C@H](CC(N)=O)NC(=O)[C@H](CCC(N)=O)NC(=O)[C@H]([C@@H](C)CC)NC(=O)[C@H](Cc2ccc(O)cc2)NC1=O [But-OT, But-Cys(&)-Tyr-Ile-Gln-Asn-Cys(&)-Pro-Leu-Gly-NH2] | 2.2 ± 0.3 ×10⁻⁶ cm/s | – | – | – | – | – | – |
| Cn1c(=O)c2c(ncn2C)n(C)c1=O [Caffeine, reference compound] | 22 ± 11.2 ×10⁻⁶ cm/s | – | – | – | – | 26% | – |
| CC[C@H](C)[C@@H]1NC(=O)[C@H](Cc2ccc(O)cc2)NC(=O)[C@@H](NC(=O)OCCOC)CSSC[C@@H](C(=O)N2CCC[C@H]2C(=O)N[C@@H](CC(C)C)C(=O)NCC(N)=O)NC(=O)[C@H](CC(N)=O)NC(=O)[C@H](CCC(N)=O)NC1=O [MeOEt-OT, MeOEt-Cys(&)-Tyr-Ile-Gln-Asn-Cys(&)-Pro-Leu-Gly-NH2] | 2.37 ± 0.52 ×10⁻⁶ cm/s | – | – | – | – | – | – |
| CC[C@H](C)[C@@H]1NC(=O)[C@H](Cc2ccc(O)cc2)NC(=O)[C@@H](N)CSSC[C@@H](C(=O)N2CCC[C@H]2C(=O)N[C@@H](CC(C)C)C(=O)NCC(N)=O)NC(=O)[C@H](CC(N)=O)NC(=O)[C@H](CCC(N)=O)NC1=O [OT, Cys(&)-Tyr-Ile-Gln-Asn-Cys(&)-Pro-Leu-Gly-NH2, reference compound] | 2.2 ×10⁻⁶ cm/s | 7.74 ± 0.53 ×10⁻⁶ cm/s | stable and high monolayer integrity | – | – | – | 15 to 30 min |
| CCOC(=O)N[C@H]1CSSC[C@@H](C(=O)N2CCC[C@H]2C(=O)N[C@@H](CC(C)C)C(=O)NCC(N)=O)NC(=O)[C@H](CC(N)=O)NC(=O)[C@H](CCC(N)=O)NC(=O)[C@H]([C@@H](C)CC)NC(=O)[C@H](Cc2ccc(O)cc2)NC1=O [Et-OT, Et-Cys(&)-Tyr-Ile-Gln-Asn-Cys(&)-Pro-Leu-Gly-NH2] | 2.78 ± 0.17 ×10⁻⁶ cm/s | – | – | – | – | – | – |

— paper PMC12112033, “Application of Lipophilic Prodrug Charge Masking Strategy to Obtain Novel, Potential Oxytocin Prodrugs” (International Journal of Molecular Sciences, 2025)
